Patent US10409869B2, “(R)- and (S)-1-(3-(3-N,N-dimethylaminocarbonyl)phenoxyl-4-nitrophenyl)-1-ethyl-N,N'-bis (ethylene)phosphoramidate, compositions and methods for their use and preparation” (OBI Pharma, Inc., priority 2015, dated 2019)
Values belong to the compound of their own block, whether it stands above or below them.

Key:
AKR1C3 [1] = molecular target: T1, AKR1C3 (Homo sapiens, UniProt P42330); assay: Activation by the aldoketo reductase AKR1C3, LC/MS/MS of % remaining; format: biochemical; conditions: 5 μM, 25 μg/mL AKR1C3, 2 mM NADPH, 37° C., up to 120 min, FIG. 2
T1 sequence (P42330 1-323): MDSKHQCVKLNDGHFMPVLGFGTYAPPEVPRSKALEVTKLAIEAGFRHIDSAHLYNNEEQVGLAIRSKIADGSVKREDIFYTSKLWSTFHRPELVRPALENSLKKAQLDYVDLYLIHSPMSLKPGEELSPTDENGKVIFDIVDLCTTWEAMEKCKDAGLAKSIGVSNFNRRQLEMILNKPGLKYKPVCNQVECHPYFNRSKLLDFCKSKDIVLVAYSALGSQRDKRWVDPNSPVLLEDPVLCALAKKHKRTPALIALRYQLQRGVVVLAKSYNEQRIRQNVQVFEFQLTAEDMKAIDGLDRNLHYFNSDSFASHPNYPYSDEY
Method: Recombinant human AKR1C3 was diluted to 25 μg/mL in phosphate buffered saline (PBS), pH 7.4 (37° C.), containing 2 mM NADPH. TH2870 or progesterone (positive control) in 30% methanol/70% water was added to the reaction mixture at a final concentration of 5 μM and incubated at 37° C. for 120 minutes. At various times up to 120 min, 50 μL of the reaction mixture was taken and 200 μL acetonitrile containing propranolol as internal standard was added, vortex-mixed and centrifuged for 10 min. The resulting supernatant (5 μL) was injected into a LC/MS/MS for quantitation of % remaining TH 2870 and progesterone. The compounds were tested in duplicates.

AKR1C3 [2] = molecular target: T1, AKR1C3; conditions: cited from earlier work
[3] = human, in vivo; cited from earlier work
[4] = system: HepG2-GFP human hepatocellular carcinoma; assay: Orthotopic HepG2-GFP human hepatocellular carcinoma mouse model, tumor burden; format: in vivo, nude mice
Method: Female athymic nude mice (6 weeks of age) were used in this study. The animals were purchased from Beijing HFK Bioscience, Co., Ltd and maintained in a High Efficiency Particulate Air Filter (HEPA) filtered environment with cages, food, and bedding sterilized by irradiation or autoclaving. A total of 32 nude mice were used for the study. HepG2-GFP human hepatocellular carcinoma cells (AntiCancer, Inc., San Diego, Calif.) were incubated with RPMI-1640 (Gibco-BRL, Life Technologies, Inc.), which contained 10% FBS. Cells were grown in a CO2 Water Jacketed Incubator (Forma Scientific) maintaining 37° C. and a 5% CO2/95% air atmosphere. Cell viability was determined by trypan blue exclusion analysis. Five female athymic nude mice were injected subcutaneously with a single dose of 5×10^6 HepG2-GFP cells. Tumors were harvested when their size reached 1 cm^3 and the tumor tissues were then cut into small fragments of 1 mm^3. Forty female nude mice were implanted orthotopically with a single piece of tumor fragment, which was derived from a subcutaneous tumor model of HepG2-GFP human hepatocellular carcinoma. The tumor tissue was orthotopically implanted in the right lobe of the liver in each mouse by SOI (Surgical Orthotopic Implantation). […]
During the period of the study, all of the experimental mice were checked daily for mortality or signs of morbidity. […] The body weights of the mice were measured twice weekly during the study period. […] Comparisons of body weights and tumor burdens in different groups were analyzed using the Student's t-test with an α=0.05 (two-sided). […]
The progressions of orthotopic HepG2-GFP hepatocellular carcinoma in different groups were monitored by real time imaging. […] Typical tumor images at the end of the study in each group and tumor growth curves derived from the signals of tumor fluorescence, which were analyzed using the Power Station software (INDEC Biosystems, CA, USA), are shown in FIG. 6 and FIG. 7, respectively
Tumor IR was calculated based on the final average tumor weights according to the formula: IR (%)=(1−treatment(t)/control(c))×100

[5] = Body weight and toxicity in the orthotopic HepG2-GFP mouse model; format: in vivo, nude mice; conditions: 30 mg/kg, Qdx35, gavage

disappearance (% remaining) in the presence of AKR1C3 (AKR1C3 [1]): rapid disappearance
SMILES: CC(OP(=O)(N1CC1)N1CC1)c1ccc([N+](=O)[O-])c(Oc2cccc(C(=O)N(C)C)c2)c1 (racemic) [TH 2870, (R,S)-1-(3-(3-N,N-dimethylaminocarbonyl)phenoxyl-4-nitrophenyl)-1-ethyl-N,N′-bis(ethylene)phosphoramidate]

SMILES: CS(=O)(=O)OCCN(CCBr)c1c(C(=O)NCCOP(=O)(O)O)cc([N+](=O)[O-])cc1[N+](=O)[O-] [PR 104]
substrate for AKR1C3 (AKR1C3 [2]): weak substrate | efficacy in clinical trials [3]: ineffective

disappearance (% remaining) in the presence of AKR1C3 (AKR1C3 [1]): reduced slowly
SMILES: CC(=O)[C@H]1CC[C@H]2[C@@H]3CCC4=CC(=O)CC[C@]4(C)[C@H]3CC[C@]12C [Progesterone, reference compound]

SMILES: CNC(=O)c1cc(Oc2ccc(NC(=O)Nc3ccc(Cl)c(C(F)(F)F)c3)cc2)ccn1 [Sorafenib, sorafenib]
average tumor size, % less than in the negative control group ([4]; 30 mg/kg, Qdx35, gavage, P=0.0577): about 39% | inhibitory effect on orthotopic HepG2-GFP model ([4]; at tested dosages): had inhibitory effect | Body Weight Growth Rate [5]: 21% | Day 0, Body Weight (mean ± sd) [5]: 15.1 ± 1.1 g | Day 35, Body Weight (mean ± sd) [5]: 18.2 ± 0.8 g | toxicity to the experimental mice ([5]; body weight lower than negative control): a certain degree of toxicity
